Experimental data taken from patent US20160168126A1, “CHEMICAL COMPOUNDS” (SYNGENTA LIMITED, priority 2013, published 2016).

System: a variety of test species
Assay: Post-emergence herbicidal activity (glasshouse, sprayed 8 days after sowing, evaluated after 13 days); as to Post-emergence herbicidal damage score, ABUTH (Abutilon theophrasti): key: 5=total damage to plant; 0=no damage to plant; as to Post-emergence herbicidal damage score, AMARE (Amaranthus retroflexus): key: 5=total damage to plant; 0=no damage to plant
Format: in vivo
Details: scale 0-5
Method in brief: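 Pot-grown seedlings sprayed 8 days after sowing with active ingredient in acetone/water (50:50) plus 0.5% Tween 20. Glasshouse at 24/16 °C day/night, 14 h light, 65% humidity, watered twice daily. Damage scored after 13 days on a 0–5 scale (5 = total damage, 0 = none).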

Compound | Post-emergence herbicidal damage score, ABUTH (Abutilon theophrasti) (1000 g/ha) | Post-emergence herbicidal damage score, ALOMY (Alopecurus myosuroides) (1000 g/ha) | Post-emergence herbicidal damage score, AMARE (Amaranthus retroflexus) (1000 g/ha) | Post-emergence herbicidal damage score, ECHCG (Echinochloa crus-galli) (1000 g/ha) | Post-emergence herbicidal damage score, SETFA (Setaria faberi) (1000 g/ha) | Post-emergence herbicidal damage score, ZEAMX (Zea mays) (1000 g/ha) | Post-emergence herbicidal damage score, ABUTH (Abutilon theophrasti) (250 g/ha) | Post-emergence herbicidal damage score, ALOMY (Alopecurus myosuroides) (250 g/ha) | Post-emergence herbicidal damage score, AMARE (Amaranthus retroflexus) (250 g/ha) | Post-emergence herbicidal damage score, ECHCG (Echinochloa crus-galli) (250 g/ha) | Post-emergence herbicidal damage score, SETFA (Setaria faberi) (250 g/ha) | Post-emergence herbicidal damage score, ZEAMX (Zea mays) (250 g/ha)
CC1=C(Cl)C(O)N(c2cc(C)n(C(F)(F)F)n2)C1=O (stereo not drawn) [Compound C9] | 1 | 0 | 1 | 1 | 0 | 1 | – | – | – | – | – | –
CC1=C(Cl)C(O)N(c2nn(C)c(C(C)(C)C)c2C#N)C1=O (stereo not drawn) [Compound D1] | 3 | 2 | 4 | 3 | 1 | 0 | – | – | – | – | – | –
CC1=C(Cl)C(O)N(c2nn(C)c(C(C)(C)C)c2Cl)C1=O (stereo not drawn) [Compound D2] | 3 | 1 | 0 | 2 | 2 | 0 | – | – | – | – | – | –
CC1=C(Cl)C(O)N(c2nn(C)c(C(C)(C)CCl)c2Cl)C1=O (stereo not drawn) [Compound D3] | 1 | 0 | 0 | 2 | 1 | 1 | – | – | – | – | – | –
CCCC1=C(C)C(O)N(c2nn(C)c(C(C)(C)C)c2C#N)C1=O (stereo not drawn) [Compound D4] | 4 | 3 | 2 | 2 | 4 | 0 | – | – | – | – | – | –
Cn1nc(N2C(=O)C(CCl)=C(Cl)C2O)cc1C(C)(C)C (stereo not drawn) [Compound E1] | 4 | 4 | 1 | 5 | 5 | 0 | – | – | – | – | – | –
CCCC1=C(Cl)C(O)N(c2cc(C(C)(C)C#N)n(C)n2)C1=O (stereo not drawn) [Compound E2] | 4 | 4 | 5 | 5 | 4 | 1 | – | – | – | – | – | –
CC1=C(Cl)C(OC(=O)OCC(C)C)N(c2cc(C(C)(C)C)n(C)n2)C1=O (stereo not drawn) [Compound F1] | 5 | 4 | 5 | 5 | 5 | 3 | – | – | – | – | – | –
CC1=C(Cl)C(OC(=O)Oc2ccccc2)N(c2cc(C(C)(C)C)n(C)n2)C1=O (stereo not drawn) [Compound F2] | 5 | 4 | 5 | 5 | 5 | 1 | – | – | – | – | – | –
COC1=C(Cl)C(OC(C)=O)N(c2cc(C(C)(C)C)n(C)n2)C1=O (stereo not drawn) [Compound F3, [1-(5-tert-butyl-1-methyl-pyrazol-3-yl)-3-chloro-4-methoxy-5-oxo-2H-pyrrol-2-yl] acetate] | 5 | 5 | 5 | 5 | 5 | 3 | – | – | – | – | – | –
CC1=C(Cl)C(O)N(c2cc3n(n2)CCC3(C)C)C1=O (stereo not drawn) [Compound G2] | – | – | – | – | – | – | 5 | 5 | 5 | 5 | 5 | 4
CC1=C(Cl)C(O)N(c2cc3n(n2)CCCC3(C)C)C1=O (stereo not drawn) [Compound G4] | 5 | 5 | 5 | 5 | 5 | 2 | – | – | – | – | – | –
CC1=C(Cl)C(O)N(c2cc3n(n2)CCSC3(C)C)C1=O (stereo not drawn) [Compound G6] | 5 | 4 | 5 | 4 | 4 | 0 | – | – | – | – | – | –
CC1=C(Br)C(O)N(c2cc(C(C)(C)C)n(C)n2)C1=O (stereo not drawn) [Compound H1] | 5 | 4 | 5 | 5 | 3 | 1 | – | – | – | – | – | –
CC1=C(Br)C(O)N(c2cc(C(C)(C)C)[nH]n2)C1=O (stereo not drawn) [Compound H2] | 5 | 3 | 5 | 2 | 4 | 2 | – | – | – | – | – | –
CC(C)=CCc1cc(N2C(=O)C(C)=C(Br)C2O)nn1C (stereo not drawn) [Compound H3] | 0 | 0 | 0 | 0 | 0 | 0 | – | – | – | – | – | –
CC1=C(Br)C(O)N(c2cc(C(F)(F)F)n(C)n2)C1=O (stereo not drawn) [Compound H4] | 5 | 5 | 5 | 2 | 1 | 0 | – | – | – | – | – | –
CC1=C(Br)C(O)N(c2nn(C)c(C(C)(C)C)c2C#N)C1=O (stereo not drawn) [Compound H5] | 2 | 1 | 2 | 1 | 1 | 0 | – | – | – | – | – | –
CCC1=C(Br)C(O)N(c2nn(C)c(C(C)(C)C)c2C#N)C1=O (stereo not drawn) [Compound H6] | 1 | 2 | 2 | 1 | 2 | 0 | – | – | – | – | – | –
CC1=C(Br)C(O)N(c2cc3n(n2)CCC3(C)C)C1=O (stereo not drawn) [Compound H7] | 5 | 5 | 4 | 3 | 4 | 1 | – | – | – | – | – | –
CC1=C(Br)C(O)N(c2cc3n(n2)CCCC3(C)C)C1=O (stereo not drawn) [Compound H8] | 5 | 5 | 5 | 4 | 4 | 0 | – | – | – | – | – | –
CC1=C(Br)C(O)N(c2cc3n(n2)CCSC3(C)C)C1=O (stereo not drawn) [Compound H9] | 4 | 5 | 4 | 3 | 3 | 0 | – | – | – | – | – | –
CC1=C(Br)C(O)N(c2nn(C)c3c2CCC3(C)C)C1=O (stereo not drawn) [Compound H10] | 5 | 5 | 5 | 4 | 5 | 3 | – | – | – | – | – | –
COC1=C(C)C(=O)N(c2cc(C(C)(C)C)[nH]n2)C1O (stereo not drawn) [Compound I1] | – | – | – | – | – | – | 5 | 3 | 5 | 3 | 5 | 1
